What is called fraction unbound is free concentration divided by total concentration. Read a high fraction unbound as much free substance. As usually defined, the AUC is concentration integrated over time. By clearance is commonly meant the rate of elimination divided by the concentration. A word on the Ki: it is a measure of affinity in units of concentration, obtained from inhibition or displacement.

SMILES strings stand for the structures. Read-outs that look alike come from different tables or passages of the source.

Data set [1] in a line: Plasma stability of test compounds in human plasma. The data set is classed as in vitro ADME. Conditions: 1 μM, 37° C. The protocol:
[table] Test compound and QC compound were incubated at a final concentration of 1 μM in plasma at 37° C. in shaker water bath with gentle shaking. At predetermined time points, reaction was terminated with 200 μL of acetonitrile containing internal standard and centrifuged at 4000×RCF, 4° C. for 20 minutes. Supernatant was separated and analyzed by LC-MS/MS. The following equation was used to determine the percentage remaining of test/QC compound following the procedure above: […]

A short description of data set [2]: Plasma protein binding, rapid equilibrium dialysis, human plasma. It is filed as in vitro ADME. Conditions: 100% plasma, 5 h equilibrium dialysis. The protocol:
[table] Test compound was spiked in plasma to a final concentration of 10 μM. An aliquot of 300 μL of plasma was placed in red chamber of the insert and 500 μL of PBS was placed into white chamber of the insert. The plate was incubated at 37° C. in thermomixer at 400 rpm for 5 hours. After incubation, the samples were matrix equilibrated with opposite matrix (10 μL of plasma/100 μL of buffer sample was matched with 100 μL of blank buffer/10 μL of plasma). Matrix matched samples were precipitated with 200 μL of acetonitrile containing internal standard. Samples were vortexed at 1000 rpm for 5 min and centrifuged at 4000 rpm for 10 min. Supernatant was separated, diluted 2 fold with water and analyzed on LC-MS/MS. Blank control samples were processed immediately after the preparation of plasma working stock solutions. These samples served as a measure for calculating the % recovery of test compounds. The percent plasma bound fraction was calculated by the following equations: % Unbound=100*FC/TC % Recovery=100*(FC+TC)/T0 where • TC=Total compound concentration as determined by the calculated concentration on the plasma side of the membrane • FC=Free compound concentration as determined by the calculated concentration on the buffer side of the membrane • T0=Total compound concentration as determined before dialysis For each set of duplicates/compound, the percentage bound, percentage unbound and percentage recovery was determined.

The nature of data set [3]: PK study, i.v. dosing in mice. As to conditions: i.v. 1 mg/kg; for AUC / C0 / clearance: mouse, plasma, iv, male Swiss albino mice; for AUC: read-out: AUC (area under the curve); for C0: read-out: C0 (plasma concentration); for clearance: read-out: Cl (clearance). It is filed as in vivo, male Swiss albino mice. Here is the method:
Compound A and Example 7 were dosed i.v. at 1 mg/kg to male Swiss albino mice.

The target of data set [4] is NDM-1 (Klebsiella pneumoniae, UniProt C7C422). Description: In vitro enzyme inhibition assay, purified NDM-1 (imipenem hydrolysis, UV 299 nm). The data set is classed as biochemical. The protocol: (§1) Enzyme inhibition assays were performed using purified MBL enzymes (NDM-1; VIM-1; VIM-2; IMP-1) in 10 mM HEPES buffer pH 7.5 in 96-well microtiter plates. Imipenem (300 μM) was used as substrate and its hydrolysis was followed at UV 299 nm during 10 mn every 30 seconds using a Perkin Elmer Envision UV fluorescence plate reader.
NDM-1, sequence (C7C422 29-270, looked up): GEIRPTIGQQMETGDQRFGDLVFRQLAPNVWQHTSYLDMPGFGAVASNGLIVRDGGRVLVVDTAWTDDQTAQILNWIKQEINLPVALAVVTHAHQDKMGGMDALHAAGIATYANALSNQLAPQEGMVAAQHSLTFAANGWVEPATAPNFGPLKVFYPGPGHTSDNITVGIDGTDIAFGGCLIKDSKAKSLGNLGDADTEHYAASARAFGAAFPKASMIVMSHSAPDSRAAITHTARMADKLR
(§2) Mean Ki values from multiple experiments are presented below.
(§3) Studies were undertaken to compare the compounds of the invention with structurally similar compounds (“Comp. x”). Experiments were conducted as described above.

The target of data set [5] is VIM-1 (Pseudomonas aeruginosa, UniProt A0A0F7KYQ8). In words: In vitro enzyme inhibition assay, purified VIM-1 (imipenem hydrolysis, UV 299 nm). It is filed as biochemical. Here is the method: as §1, §2, §3
Data set [6] concerns the target VIM-2 (Escherichia coli, UniProt Q5U7L7). In words: In vitro enzyme inhibition assay, purified VIM-2 (imipenem hydrolysis, UV 299 nm). It is filed as biochemical. The protocol: as §1, §2, §3
In data set [7] the target is IMP-1 (Serratia marcescens, UniProt P52699). Description: In vitro enzyme inhibition assay, purified IMP-1 (imipenem hydrolysis, UV 299 nm). The data set is classed as biochemical. Here is the method: as §1, §2, §3
IMP-1, sequence (P52699 19-246, looked up, species assumed): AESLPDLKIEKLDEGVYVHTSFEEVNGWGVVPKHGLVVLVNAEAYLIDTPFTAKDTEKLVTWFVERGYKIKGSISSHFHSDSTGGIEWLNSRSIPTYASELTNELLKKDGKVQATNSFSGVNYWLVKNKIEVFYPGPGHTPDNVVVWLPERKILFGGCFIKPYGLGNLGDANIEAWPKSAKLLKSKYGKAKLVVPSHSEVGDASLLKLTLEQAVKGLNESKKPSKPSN
Data set [8] relates to NTBC104-1 (K. pneumoniae strain expressing NDM-1 and SHV-11). In words: Meropenem MIC, broth micro-dilution, NTBC104-1. The data set is classed as cell-based. As to conditions: 8 ug/mL of the compound. The protocol: The experiments were carried out using the ‘broth micro-dilution method’ according to the protocols M07-A8 established by the Clinical Laboratory Standards Institute (CLSI). Serial dilutions of the β-lactam antibiotic (Meropenem) were prepared in 96-well plates in cation-adjusted Mueller-Hinton broth (CAMHB); the concentration range was defined from 0.03 mg/L to 512 mg/L. The compounds were added at a constant concentration of 8 μg/mL. A bacterial inoculum of each strain (clinical isolates) was adjusted to a 0.5 McFarland turbidity standard in physiologic serum (0.9% NaCl), then diluted 1:100 in CAMHB and added to each well to give a final bacterial cell number of 5×10^5 CFU/well. After incubation for 18-20 hours in a heating chamber at 37° C., the growth inhibition was evaluated by the absence of any bacterial development.
Compounds of the invention were tested at a constant concentration of 8 μg/mL. The clinical strains used in these potentiation experiments were NTBC020 (E. coli strain expressing NDM-1, TEM-1 and CTX-M-15); NTBC035-2 (K. pneumoniae strain expressing NDM-1, CMY-4 and SHV-11); NTBC104-1 (K. pneumoniae strain expressing NDM-1 and SHV-11); NTBC123 (K. pneumoniae strain expressing NDM-1); NTBC018 (C. freundii strain expressing VIM-2); NTBC024 (K. pneumoniae strain expressing VIM-19, TEM-1 and CTX-M-3); NTBC042 (E. coli strain expressing VIM-1, TEM-1, CTX-M-15, SHV-12); NTBC055 (E. Coli strain expressing VIM-1); NTBC062 (K. pneumoniae strain expressing IMP-1 and TEM-1) and NTBC039 (K. oxytoca strain expressing IMP-28).
(§4) Mice were infected in the thigh with K. pneumoniae NTBC104. […] The MIC of meropenem in the presence of 8 ug/mL of the compound of Example 2 is 4 ug/mL.
Experiments were carried out using the ‘broth micro-dilution method’ according to the protocols M07-A8 established by the Clinical Laboratory Standards Institute (CLSI). […] After incubation for 18-20 hours in a heating chamber at 37° C., the growth inhibition was evaluated by the absence of any bacterial development. […]
On the technique in general: In broth dilution the organism is exposed to a series of concentrations in liquid medium.

In data set [9] the test system is K. pneumoniae NTBC104. In words: In vivo efficacy, mouse thigh infection with K. pneumoniae NTBC104. Conditions: meropenem 30 mg/kg plus compound 30 mg/kg, 9 hours post infection. Here is the method:
as §4
At the end of the experiment (9 hours post infection) the animals were sacrificed and the numbers of colony forming units (CFUs) were measured in order to quantify bacterial load (extent of the infection).

Where [10] appears, read: comparative study bands, read-out: Ki NDM-1 (comparative study).
[11] abbreviates: comparative study bands, read-out: Ki VIM-1 (comparative study).
The mark [12] stands for this setting: comparative study bands, read-out: Ki VIM-2 (comparative study).
[13] abbreviates: comparative study bands, read-out: Ki IMP-1 (comparative study).
The mark [14] stands for this setting: mean Ki from multiple experiments, imipenem 300 μM, Cheng-Prusoff from IC50, read-out: Ki NDM-1.
[15] abbreviates: mean Ki from multiple experiments, imipenem 300 μM, Cheng-Prusoff from IC50, read-out: Ki VIM-1.
Where [16] appears, read: mean Ki from multiple experiments, imipenem 300 μM, Cheng-Prusoff from IC50, read-out: Ki VIM-2.
[17] abbreviates: mean Ki from multiple experiments, imipenem 300 μM, Cheng-Prusoff from IC50, read-out: Ki IMP-1.

`NCC(=O)Nc1ccc(S(=O)(=O)Nc2scnc2C(=O)O)cc1F` [Comp. A, reference compound]: the “Stability in human plasma, % remaining” value in data set [1] (after 2 hours) came to 29% remaining after 2 hours. In [2], this compound had an unbound share (fraction unbound) at 5 h, 10 μM of 0.097. Further, in data set [3], the AUC came to 9 ng·h/mL, the C0 came out at 17 ng/mL and the clearance was found to be 819 mL/min/kg.
As to `NCC(=O)Nc1c(F)cc(S(=O)(=O)Nc2scnc2C(=O)O)cc1F` [Comp. B, reference compound], the inhibition constant (Ki) in data set [4] (setting [10]) was < 30 nM; in data set [5] (setting [11]), 300 to 500 nM; in data set [6] (setting [12]) it was 100 to 150 nM; in data set [7] (setting [13]), 600 to 5000 nM. Also, in data set [1] (after 5 hours), the “Stability in human plasma, % remaining” value was determined as 0% remaining after 5 hours.
Take `N=C(N)NCC(=O)Nc1c(F)cc(S(=O)(=O)Nc2scnc2C(=O)O)cc1F` [Example 2, 5-[[3,5-difluoro-4-[(2-guanidinoacetyl)amino]phenyl]sulfonylamino]thiazole-4-carboxylic acid]: the Ki is < 30 nM in data set [4] (setting [10]); < 50 nM in data set [4] (setting [14]); 300 to 500 nM in [5] (setting [11]); 200 to 500 nM in data set [5] (setting [15]); 50 to 100 nM in data set [6] (setting [12]); 50 to 150 nM in data set [6] (setting [16]). The Ki lay in the range of 600 to 5000 nM in [7] (setting [13]) and 1000 to 10000 nM in data set [7] (setting [17]). In addition, the “MIC of meropenem in the presence of the compound, K. pneumoniae NTBC104” value in data set [8] is 4 µg/mL. In data set [1] (after 2 hours), the “Stability in human plasma, % remaining” value was 73% remaining after 2 hours. Moreover, the fraction unbound at 5 h, 10 μM in [2] was 0.19. Further, the “Log10 reduction in CFUs compared to meropenem alone” value (shortened to “Log10 reduction in CFUs”) in data set [9] was determined as 1.6 Log10.
Consider `N=C(N)NCC(=O)Nc1ccc(S(=O)(=O)Nc2scnc2C(=O)O)cc1F` [Example 7, 5-[[3-fluoro-4-[(2-guanidinoacetyl)amino]phenyl]sulfonylamino]thiazole-4-carboxylic acid], for which the inhibition constant (Ki) in data set [4] (setting [14]) lay in the range of 50 to 200 nM. Moreover, in data set [5] (setting [15]), the Ki lay within 200 to 500 nM. In addition, the inhibition constant Ki in data set [6] (setting [16]) lay in the range of 50 to 150 nM. Further, the inhibition constant Ki in data set [7] (setting [17]) lay within 1000 to 10000 nM. Also, the “Stability in human plasma, % remaining” value in data set [1] (after 5 hours) is 100% remaining after 5 hours. Further, the unbound share (fraction unbound) at 5 h, 10 μM in data set [2] was 0.392. Moreover, in [3], the exposure (AUC) stood at 1040 ng·h/mL, the C0 stood at 1810 ng/mL and the clearance came to 16 mL/min/kg. Also, in data set [3] (same dosage, mice), the “cleared from the blood slower than Compound A” value is on record as “about 50 fold”, the “exposure (AUC) compared to Compound A” value is reported as > 100 fold and the “maximum concentration compared to Compound A” value was > 100 fold. Besides, the “Log10 reduction in CFUs” value in data set [9] is given as 1.7 Log10.
On to `COc1cc(S(=O)(=O)Nc2scnc2C(=O)O)ccc1NC(=O)CNC(=N)N` [Example 16, 5-[[4-[(2-guanidinoacetyl)amino]-3-methoxy-phenyl]sulfonylamino]thiazole-4-carboxylic acid], for which the Ki was 30 to 100 nM in data set [4] (setting [10]); 50 to 200 nM in data set [4] (setting [14]); < 150 nM in data set [5] (setting [11]); < 200 nM in data set [5] (setting [15]); < 20 nM in data set [6] (setting [12]); < 20 nM in data set [6] (setting [16]). Further, the inhibition constant (Ki) in data set [7] (setting [13]) lay within 150 to 600 nM; in data set [7] (setting [17]), 500 to 1000 nM. Moreover, the “Stability in human plasma, % remaining” value in data set [1] (after 2 hours) was 89% remaining after 2 hours.
For `N=C(N)NNC(=O)Nc1c(F)cc(S(=O)(=O)Nc2scnc2C(=O)O)cc1F` [Example 26, 5-[[3,5-difluoro-4-(guanidinocarbamoylamino)phenyl]sulfonylamino]thiazole-4-carboxylic acid], the Ki in data set [4] (setting [14]) was < 50 nM; in data set [5] (setting [15]), 200 to 500 nM; in data set [6] (setting [16]) it was 20 to 50 nM; in data set [7] (setting [17]) it was 1000 to 10000 nM. For the same compound, the “Log10 reduction in CFUs” value in data set [9] is recorded as 1.8 Log10.

For the origin of these results see patent publication US11299467B2 (Antabio SAS, priority 2017, dated 2022).
